Laboratory results taken from BindingDB's records for doi:10.7270/Q2VX0F3D (Burnham Center For Chemical Genomics, 2012).

Target: T1, Corticotropin-releasing factor-binding protein (Homo sapiens, UniProt P24387)
T1 sequence (P24387 whole entry): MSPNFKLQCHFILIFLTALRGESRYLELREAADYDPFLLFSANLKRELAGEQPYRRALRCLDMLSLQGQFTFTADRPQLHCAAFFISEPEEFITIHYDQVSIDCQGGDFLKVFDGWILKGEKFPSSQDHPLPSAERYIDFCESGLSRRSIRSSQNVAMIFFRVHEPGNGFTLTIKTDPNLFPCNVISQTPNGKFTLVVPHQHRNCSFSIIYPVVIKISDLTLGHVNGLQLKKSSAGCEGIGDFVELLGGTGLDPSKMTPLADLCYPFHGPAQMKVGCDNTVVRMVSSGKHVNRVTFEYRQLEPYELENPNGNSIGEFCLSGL
Assay: activators of CRF receptor 2 with binding protein – uHTS hits, confirmation (AID 602473)

SMILES | EC50 [µM]
CCOC(=O)C1C(CCc2ccccc2)=NC(=O)NC1c1cccc([N+](=O)[O-])c1 (stereo not drawn) [4-(3-nitrophenyl)-2-oxo-6-(2-phenylethyl)-3,4-dihydro-1H-pyrimidine-5-carboxylic acid ethyl ester] | > 53
COC(=O)c1ccc(C(=O)C(C#N)c2nc3ccccc3s2)cc1 (stereo not drawn) [4-[(2Z)-2-(3H-1,3-benzothiazol-2-ylidene)-2-cyano-1-oxoethyl]benzoic acid methyl ester] | > 53
C=CCSc1nnc(C)c(CC=Nc2ccc(Cl)cc2)n1 [4-chloro-N-[(E)-2-(6-methyl-3-prop-2-enylsulfanyl-1,2,4-triazin-5-yl)ethenyl]aniline] | 4.77
Cc1ccc2nc(N3C(=O)C(=O)C(C(=O)c4ccc(C)o4)C3c3cccc(O)c3)sc2c1 (stereo not drawn) [4-hydroxy-2-(3-hydroxyphenyl)-1-(6-methyl-1,3-benzothiazol-2-yl)-3-(5-methylfuran-2-carbonyl)-2H-pyrrol-5-one] | > 53
CC1(C)CC(=O)C(C2C3=C(CC(C)(C)CC3=O)Oc3c(Br)cc(Br)cc32)C(=O)C1 (stereo not drawn) [5,7-bis(bromanyl)-9-(4,4-dimethyl-2-oxidanyl-6-oxidanylidene-cyclohexen-1-yl)-3,3-dimethyl-4,9-dihydro-2H-xanthen-1-one] | 10.3
O=C1CC(c2ccccc2)C(c2ccccc2)C1=O (stereo not drawn) [5-oxidanyl-3,4-diphenyl-cyclopent-2-en-1-one] | > 53
O=c1cc(Nc2cc(O)n(-c3ccccc3Cl)c2O)[nH]c(=O)[nH]1 [6-[[1-(2-chlorophenyl)-2,5-dioxopyrrolidin-3-yl]amino]-1H-pyrimidine-2,4-dione] | > 53
COc1ccc(-c2ccc(C3c4c(n[nH]c4C)OC(=N)C3C#N)o2)cc1 (stereo not drawn) [6-amino-4-[5-(4-methoxyphenyl)-2-furanyl]-3-methyl-2,4-dihydropyrano[2,3-c]pyrazole-5-carbonitrile] | 10.1
COc1ccc(C2=Nc3ncnn3C(c3ccco3)C2)cc1 (stereo not drawn) [7-(2-furanyl)-5-(4-methoxyphenyl)-1,7-dihydro-[1,2,4]triazolo[1,5-a]pyrimidine] | 4.53
Fc1ccc(Br)cc1C1CC(c2ccc(Br)cc2)=Nc2ncnn21 (stereo not drawn) [7-(5-bromo-2-fluorophenyl)-5-(4-bromophenyl)-1,7-dihydro-[1,2,4]triazolo[1,5-a]pyrimidine] | > 53
COc1ccc(C2=c3cc(F)ccc3=NC(c3ccco3)=NN2)cc1 [7-fluoranyl-2-(furan-2-yl)-5-(4-methoxyphenyl)-4H-1,3,4-benzotriazepine] | > 53
N#CC(C(=O)c1cccc(F)c1)c1nc2ccccc2s1 (stereo not drawn) [(2Z)-2-(3H-1,3-benzothiazol-2-ylidene)-3-(3-fluorophenyl)-3-keto-propionitrile] | > 53
N#CC(C(=O)Cc1cccc2ccccc12)c1nc2ccccc2s1 (stereo not drawn) [(2Z)-2-(3H-1,3-benzothiazol-2-ylidene)-4-naphthalen-1-yl-3-oxobutanenitrile] | 3.14
N#CC(C1=NCCC1)c1nc2ccccc2c(=O)[nH]1 (stereo not drawn) [(2Z)-2-(4-oxo-1H-quinazolin-2-yl)-2-(2-pyrrolidinylidene)acetonitrile] | > 53
O=NC1C(=O)N(Cc2c(Cl)cccc2Cl)c2ccccc21 (stereo not drawn) [(3Z)-1-[(2,6-dichlorophenyl)methyl]-3-hydroxyimino-2-indolone] | 4.67
Cc1ccc2oc(=O)c(CC(=O)c3sc(C)nc3C)nc2c1 [(3Z)-3-[2-(2,4-dimethyl-1,3-thiazol-5-yl)-2-oxidanylidene-ethylidene]-6-methyl-4H-1,4-benzoxazin-2-one] | 7.67
Cc1ccc2oc(=O)c(CC(=O)c3ccco3)nc2c1 [(3Z)-3-[2-(2-furanyl)-2-oxoethylidene]-6-methyl-4H-1,4-benzoxazin-2-one] | 4.74
COc1ccc(C(=O)Cc2nc3ccccc3n(-c3ccccc3)c2=O)cc1 [(3Z)-3-[2-(4-methoxyphenyl)-2-oxidanylidene-ethylidene]-1-phenyl-4H-quinoxalin-2-one] | 7.85
Cc1ccc(C(=O)Cc2nc3ccccc3oc2=O)cc1 [(3Z)-3-[2-(4-methylphenyl)-2-oxidanylidene-ethylidene]-4H-1,4-benzoxazin-2-one] | 11.4
Cc1ccc2oc(=O)c(CC(=O)c3cccs3)nc2c1 [(3Z)-3-[2-keto-2-(2-thienyl)ethylidene]-6-methyl-4H-1,4-benzoxazin-2-one] | 4.87
O=C(Cc1nc2ccccc2n(-c2ccccc2)c1=O)c1ccccc1 [(3Z)-3-phenacylidene-1-phenyl-4H-quinoxalin-2-one] | 11.6
Cc1ccc2oc(=O)c(CC(=O)c3ccccc3)nc2c1 [(3Z)-6-methyl-3-(2-oxo-2-phenylethylidene)-3,4-dihydro-2H-1,4-benzoxazin-2-one] | 12.1
CCOc1ccc(C2C(C(=O)c3ccc4c(c3)OCCO4)C(=O)C(=O)N2CCCN2CCOCC2)cc1 (stereo not drawn) [(4E)-4-[2,3-dihydro-1,4-benzodioxin-6-yl(oxidanyl)methylidene]-5-(4-ethoxyphenyl)-1-(3-morpholin-4-ylpropyl)pyrrolidine-2,3-dione] | > 53
CCCCN1C(=O)NC(=O)C(C(=O)C=Cc2c[nH]c3ccccc23)C1=O (stereo not drawn) [(5Z)-1-butyl-5-[(E)-3-(1H-indol-3-yl)-1-oxidanyl-prop-2-enylidene]-1,3-diazinane-2,4,6-trione] | 6.02
O=CC(C=Nc1ccccn1)c1nc2cc(Cl)ccc2o1 (stereo not drawn) [(Z)-2-(5-chloranyl-1,3-benzoxazol-2-yl)-3-(pyridin-2-ylamino)prop-2-enal] | > 53
N#CCSc1nnc(CNc2ccc(F)cc2)o1 [({5-[(4-fluoroanilino)methyl]-1,3,4-oxadiazol-2-yl}sulfanyl)acetonitrile] | > 53
COc1ccc(C2=Nc3nnnn3C(c3cccc(OC)c3)C2)cc1 (stereo not drawn) [MLS000036434] | > 53

SMILES | EC50 [µM]
CCOC(=O)C1=C(C)N=C(SCC(=O)OC)C(C#N)C1c1ccc(C(=O)OC)cc1 (stereo not drawn) [MLS000039154] | > 53
C=CCOC(=O)C1C(C)=NC2(O)c3ccccc3C(=O)C12O (stereo not drawn) [MLS000068305] | > 53
Cc1c(Cl)ccc2c1NC(=O)C21NC(CCC(N)=O)c2c1c(O)n(-c1ccc(Cl)cc1)c2O (stereo not drawn) [MLS000083515] | > 53
CCCC(NCC(=O)O)=C1C(=O)CC(C)(C)C(C(=O)OC)C1=O (stereo not drawn) [MLS000108316] | > 53
CSc1nnc(C)c(CC=Nc2ccc(C)cc2)n1 [MLS000326071] | 14.9
N#CC(C(=O)COC(=O)COc1cccc(Br)c1)c1nc2ccccc2[nH]1 (stereo not drawn) [MLS000391269] | > 53
CC(=O)C1C(=O)C(=O)N(c2nccs2)C1c1ccccc1 (stereo not drawn) [MLS000533923] | > 53
COC(=O)C1=C(C)N=C(C)C(C(=O)OC)C1/C=C/c1ccccc1 (stereo not drawn) [MLS000571366] | > 53
COc1ccc(/C=N/OCC(=O)NNC2=c3cc(Br)ccc3=NC2=O)cc1 [MLS000587830] | > 53
Nc1[nH]c(=O)sc1C=C1C=CC(=O)C=C1 [MLS000697264] | > 53
CC1(C)CC(=O)C(=CNc2ccc(C(=O)c3ccccc3)cc2NC=C2C(=O)CC(C)(C)CC2=O)C(=O)C1 [MLS000724193] | > 53
Cn1c(SCC(=O)N/N=C/C2C=C([N+](=O)[O-])C=CC2=O)nnc1-c1ccccc1 (stereo not drawn) [MLS000777077] | > 53
Cc1cc(C)n(CCC(=O)NNC2=c3cc(Br)ccc3=NC2=O)n1 [MLS000777238] | > 53
CC(=O)C1C(C)=NC(=S)NC1c1cc([N+](=O)[O-])ccc1O (stereo not drawn) [MLS000777581] | > 53
O=C(Nn1c(O)csc1=S)c1cccnc1 [MLS000780148] | > 53
COc1ccc(C(C)N=Nc2ccc([N+](=O)[O-])cc2S(=O)(=O)Nc2ccccc2C(=O)O)c(OC)c1 (stereo not drawn) [MLS002249507] | 38.6
Cn1c(O)c(N=Nc2ccc([N+](=O)[O-])cc2)sc1=S [MLS002608645] | 1.69
CN(C)c1ccc(C=Nn2c(O)csc2=S)c(Cl)c1 [MLS002919800] | > 53
Oc1csc(=S)n1N=Cc1c(F)cccc1Cl [MLS002919802] | > 53
Cc1cc2c(cc1Br)=NC(=O)C=2NNC(=O)C1CC1c1ccccc1 (stereo not drawn) [N'-(6-bromo-5-methyl-2-oxo-3-indolyl)-2-phenyl-1-cyclopropanecarbohydrazide] | > 53
COc1ccccc1NS(=O)(=O)c1ccc(N=NCc2c(C)nn(-c3ccccc3)c2N2CCCC2)c([N+](=O)[O-])c1 [N-(2-methoxyphenyl)-4-[(2E)-2-[(3-methyl-1-phenyl-5-pyrrolidin-1-yl-pyrazol-4-yl)methylidene]hydrazinyl]-3-nitro-benzenesulfonamide] | > 53
Cc1noc(NS(=O)(=O)c2ccc(N=CCC(=O)c3cccc4ccccc34)cc2)c1C [N-(3,4-dimethyl-1,2-oxazol-5-yl)-4-[[(Z)-3-naphthalen-1-yl-3-oxidanylidene-prop-1-enyl]amino]benzenesulfonamide] | > 53
Cc1ccc(C)c2sc(NC(=O)c3ccc(-n4c(O)ccc4O)cc3)nc12 [N-(4,7-dimethyl-1,3-benzothiazol-2-yl)-4-(2,5-dioxopyrrolidin-1-yl)benzamide] | > 53
CN1c2ccccc2C(=O)C(C(=S)Nc2ccc(Cl)cc2)S1(=O)=O (stereo not drawn) [N-(4-chlorophenyl)-4-hydroxy-1-methyl-2,2-dioxo-1,2-dihydro-2lambda~6~,1-benzothiazine-3-carbothioamide] | > 53
CCCCN(C(=O)c1ccc2c(c1)S(=O)(=O)NC1=CCCCCN12)c1c(N)n(CCCC)c(=O)[nH]c1=O [N-(6-amino-1-butyl-2,4-dioxo-5-pyrimidinyl)-N-butyl-5,5-dioxo-8,9,10,11-tetrahydro-7H-azepino[2,1-c][1,2,4]benzothiadiazine-3-carboxamide] | > 53
CCC(C)(C)NC(=O)C(c1ccccc1F)N(Cc1ccco1)C(=O)c1csnn1 (stereo not drawn) [N-[1-(2-fluorophenyl)-2-(2-methylbutan-2-ylamino)-2-oxoethyl]-N-(2-furanylmethyl)-4-thiadiazolecarboxamide] | 15.6
